Test results from BindingDB's records for doi:10.7270/Q26M3571 (Nmmlsc, 2007).

What follows are molecules tested against T1, N-formyl peptide receptor 2 (Homo sapiens, UniProt P25090) (assay: FPRL1 fluorescent ligand binding inhibitors, dose response, selectivity assay for FPR1 ligand SAR project, cell-based, flow cytometry, Ki from IC50 (AID 723)).
T1 sequence (P25090 whole entry): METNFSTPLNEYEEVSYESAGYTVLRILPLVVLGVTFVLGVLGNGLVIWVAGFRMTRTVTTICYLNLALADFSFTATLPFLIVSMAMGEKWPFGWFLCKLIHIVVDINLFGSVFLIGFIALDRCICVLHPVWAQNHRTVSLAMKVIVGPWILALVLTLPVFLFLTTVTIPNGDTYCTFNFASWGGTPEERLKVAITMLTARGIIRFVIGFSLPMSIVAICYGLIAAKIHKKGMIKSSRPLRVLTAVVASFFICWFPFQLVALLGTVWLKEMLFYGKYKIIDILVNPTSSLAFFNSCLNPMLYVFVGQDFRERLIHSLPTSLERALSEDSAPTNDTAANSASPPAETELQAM

Row | Ki | SMILES
1 | > 40.3 µM | O=C1C(=O)N(c2ccc(F)cc2)C(c2ccc(Br)cc2)C1C(=O)c1ccccc1 (stereo unspecified) [(4Z)-5-(4-bromophenyl)-1-(4-fluorophenyl)-4-[hydroxy(phenyl)methylene]pyrrolidine-2,3-quinone]
2 | > 40.3 µM | COc1ccc(C2C(C(=O)c3cc4ccccc4o3)C(=O)C(=O)N2CCN(C)C)cc1OC (stereo unspecified) [3-(1-benzofuran-2-carbonyl)-2-(3,4-dimethoxyphenyl)-1-[2-(dimethylamino)ethyl]-4-hydroxy-2H-pyrrol-5-one]
3 | > 40.3 µM | COc1ccc(OC)c(C2C(C(=O)c3ccc(C)cc3)C(=O)C(=O)N2CCC(=O)O)c1 (stereo unspecified) [3-[(3E)-2-(2,5-dimethoxyphenyl)-3-[(4-methylphenyl)-oxidanyl-methylidene]-4,5-bis(oxidanylidene)pyrrolidin-1-yl]propanoic acid]
4 | > 40.3 µM | COc1ccc(C2C(C(=O)c3ccc(C)cc3)C(=O)C(=O)N2Cc2cccnc2)c(OC)c1 (stereo unspecified) [(4E)-5-(2,4-dimethoxyphenyl)-4-[(4-methylphenyl)-oxidanyl-methylidene]-1-(pyridin-3-ylmethyl)pyrrolidine-2,3-dione]
5 | > 40.3 µM | O=C1C(=O)N(CCCn2ccnc2)C(c2cccnc2)C1C(=O)c1cc2ccccc2o1 (stereo unspecified) [3-(1-benzofuran-2-carbonyl)-4-hydroxy-1-(3-imidazol-1-ylpropyl)-2-pyridin-3-yl-2H-pyrrol-5-one]
6 | > 40.3 µM | COc1ccc(C2C(C(=O)c3ccco3)C(=O)C(=O)N2CCCN2CCOCC2)cc1OC (stereo unspecified) [2-(3,4-dimethoxyphenyl)-3-(furan-2-carbonyl)-4-hydroxy-1-(3-morpholin-4-ylpropyl)-2H-pyrrol-5-one]
7 | > 40.3 µM | COCCCN1C(=O)C(=O)C(C(=O)c2ccccc2)C1c1ccc(C(C)C)cc1 (stereo unspecified) [(4E)-1-(3-methoxypropyl)-4-[oxidanyl(phenyl)methylidene]-5-(4-propan-2-ylphenyl)pyrrolidine-2,3-dione]
8 | > 40.3 µM | COCCCN1C(=O)C(=O)C(C(=O)c2ccccc2)C1c1ccc(O)c(OC)c1 (stereo unspecified) [(4E)-5-(3-methoxy-4-oxidanyl-phenyl)-1-(3-methoxypropyl)-4-[oxidanyl(phenyl)methylidene]pyrrolidine-2,3-dione]
9 | > 40.3 µM | CC(C)c1ccc(C2C(C(=O)c3ccccc3)C(=O)C(=O)N2Cc2cccnc2)cc1 (stereo unspecified) [(4E)-4-[hydroxy(phenyl)methylene]-5-p-cumenyl-1-(3-pyridylmethyl)pyrrolidine-2,3-quinone]
10 | > 40.3 µM | COCCN1C(=O)C(=O)C(C(=O)c2ccccc2)C1c1cc(OC)ccc1OC (stereo unspecified) [(4E)-5-(2,5-dimethoxyphenyl)-1-(2-methoxyethyl)-4-[oxidanyl(phenyl)methylidene]pyrrolidine-2,3-dione]
11 | > 40.3 µM | O=C1C(=O)N(CCc2ccccc2)C(c2ccc(Cl)cc2)C1C(=O)c1cccs1 (stereo unspecified) [2-(4-chlorophenyl)-4-hydroxy-1-(2-phenylethyl)-3-(thiophene-2-carbonyl)-2H-pyrrol-5-one]
12 | > 40.3 µM | COc1ccc(C(=O)C2C(=O)C(=O)N(CCc3c[nH]c4ccccc34)C2c2ccc(C(C)C)cc2)cc1 (stereo unspecified)
13 | > 40.3 µM | Cc1ccc(C(=O)C2C(=O)C(=O)N(c3nnc(C)s3)C2c2ccc(C(C)C)cc2)cc1 (stereo unspecified) [(4E)-4-[(4-methylphenyl)-oxidanyl-methylidene]-1-(5-methyl-1,3,4-thiadiazol-2-yl)-5-(4-propan-2-ylphenyl)pyrrolidine-2,3-dione]
14 | > 40.3 µM | O=C1C(=O)N(CN2CCOCC2)C(c2ccc(Br)cc2)C1C(=O)c1ccccc1 (stereo unspecified) [(4E)-5-(4-bromophenyl)-1-(morpholin-4-ylmethyl)-4-[oxidanyl(phenyl)methylidene]pyrrolidine-2,3-dione]
15 | > 40.3 µM | O=C1C(=O)N(CCCN2CCOCC2)C(c2cccnc2)C1C(=O)c1cc2ccccc2o1 (stereo unspecified) [3-(1-benzofuran-2-carbonyl)-4-hydroxy-1-(3-morpholin-4-ylpropyl)-2-pyridin-3-yl-2H-pyrrol-5-one]
16 | > 40.3 µM | COc1ccc(C2C(C(=O)c3cccs3)C(=O)C(=O)N2CCCn2ccnc2)cc1 (stereo unspecified) [1-(3-imidazol-1-ylpropyl)-2-(4-methoxyphenyl)-4-oxidanyl-3-thiophen-2-ylcarbonyl-2H-pyrrol-5-one]
17 | > 40.3 µM | COc1cc(C2C(C(=O)c3cc4ccccc4o3)C(=O)C(=O)N2CCN(C)C)ccc1O (stereo unspecified) [3-(1-benzofuran-2-carbonyl)-1-[2-(dimethylamino)ethyl]-4-hydroxy-2-(4-hydroxy-3-methoxyphenyl)-2H-pyrrol-5-one]

The next lines start with the molecule.

Row | SMILES | Ki
18 | Cc1ccc(C(=O)C2C(=O)C(=O)N(Cc3cccnc3)C2c2ccc(Br)cc2)cc1 (stereo unspecified) [(4E)-5-(4-bromophenyl)-4-[(4-methylphenyl)-oxidanyl-methylidene]-1-(pyridin-3-ylmethyl)pyrrolidine-2,3-dione] | > 40.3 µM
19 | O=C1C(=O)N(CCCn2ccnc2)C(c2cccnc2)C1C(=O)c1ccco1 (stereo unspecified) [3-(furan-2-carbonyl)-4-hydroxy-1-(3-imidazol-1-ylpropyl)-2-pyridin-3-yl-2H-pyrrol-5-one] | > 40.3 µM
20 | COc1ccc(OC)c(C2C(C(=O)c3ccccc3)C(=O)C(=O)N2c2cccnc2)c1 (stereo unspecified) [(4E)-5-(2,5-dimethoxyphenyl)-4-[hydroxy(phenyl)methylene]-1-(3-pyridyl)pyrrolidine-2,3-quinone] | > 40.3 µM
21 | COc1ccc(C(=O)C2C(=O)C(=O)NC2c2ccc(OC)cc2OC)cc1 (stereo unspecified) [(4Z)-5-(2,4-dimethoxyphenyl)-4-[(4-methoxyphenyl)-oxidanyl-methylidene]pyrrolidine-2,3-dione] | > 40.3 µM
22 | Cc1ccc(N2C(=O)C(=O)C(C(=O)c3ccccc3)C2c2cccc(F)c2)cc1Br (stereo unspecified) [(4Z)-1-(3-bromanyl-4-methyl-phenyl)-5-(3-fluorophenyl)-4-[oxidanyl(phenyl)methylidene]pyrrolidine-2,3-dione] | > 40.3 µM
23 | COCCN1C(=O)C(=O)C(C(=O)c2ccccc2)C1c1ccccc1OC (stereo unspecified) [(4E)-1-(2-methoxyethyl)-5-(2-methoxyphenyl)-4-[oxidanyl(phenyl)methylidene]pyrrolidine-2,3-dione] | > 40.3 µM
24 | CCCCCCN1C(=O)C(=O)C(C(=O)c2ccccc2)C1c1ccc(O)c(OC)c1 (stereo unspecified) [(4Z)-1-hexyl-5-(3-methoxy-4-oxidanyl-phenyl)-4-[oxidanyl(phenyl)methylidene]pyrrolidine-2,3-dione] | > 40.3 µM
25 | COc1cc(C2C(C(C)=O)C(=O)C(=O)N2c2ccc(Br)cc2)ccc1O (stereo unspecified) [1-(4-bromophenyl)-3-ethanoyl-2-(3-methoxy-4-oxidanyl-phenyl)-4-oxidanyl-2H-pyrrol-5-one] | > 40.3 µM
26 | COc1ccc(C2C(C(=O)c3ccco3)C(=O)C(=O)N2CCN2CCOCC2)c(OC)c1 (stereo unspecified) [5-(2,4-dimethoxyphenyl)-4-(furan-2-carbonyl)-3-hydroxy-1-(2-morpholinoethyl)-1H-pyrrol-2(5H)-one] | > 40.3 µM
27 | COc1ccc(C2C(C(=O)c3ccccc3)C(=O)C(=O)N2CCCn2ccnc2)c(OC)c1 (stereo unspecified) [(4E)-5-(2,4-dimethoxyphenyl)-1-(3-imidazol-1-ylpropyl)-4-[oxidanyl(phenyl)methylidene]pyrrolidine-2,3-dione] | > 40.3 µM
28 | N#Cc1c(N=C(CC(=O)c2ccccc2)C(=O)O)sc2c1CCC2 [(Z)-2-[(3-cyano-5,6-dihydro-4H-cyclopenta[b]thiophen-2-yl)amino]-4-keto-4-phenyl-but-2-enoic acid] | > 40.3 µM
29 | COc1ccc(OC)c(C2C(C(=O)c3ccccc3)C(=O)C(=O)N2c2ccc(C)c(Cl)c2)c1 (stereo unspecified) [(4E)-1-(3-chloranyl-4-methyl-phenyl)-5-(2,5-dimethoxyphenyl)-4-[oxidanyl(phenyl)methylidene]pyrrolidine-2,3-dione] | > 40.3 µM
30 | COCCN1C(=O)C(=O)C(C(=O)c2ccccc2)C1c1ccc(C(C)C)cc1 (stereo unspecified) [(4E)-1-(2-methoxyethyl)-4-[oxidanyl(phenyl)methylidene]-5-(4-propan-2-ylphenyl)pyrrolidine-2,3-dione] | > 40.3 µM
31 | O=C(O)CCCN1C(=O)C(=O)C(C(=O)c2ccccc2)C1/C=C/c1ccccc1 (stereo unspecified) [4-[(4E)-2,3-bis(oxidanylidene)-4-[oxidanyl(phenyl)methylidene]-5-[(E)-2-phenylethenyl]pyrrolidin-1-yl]butanoic acid] | > 40.3 µM
32 | COc1ccc(C2C(C(=O)c3ccccc3)C(=O)C(=O)N2c2cccc(Cl)c2)c(OC)c1 (stereo unspecified) [(4E)-1-(3-chlorophenyl)-5-(2,4-dimethoxyphenyl)-4-[hydroxy(phenyl)methylene]pyrrolidine-2,3-quinone] | > 40.3 µM
33 | O=C1NC(c2ccc(Br)cc2)C(C(=O)c2ccc(Cl)cc2)C1=O (stereo unspecified) [(4E)-5-(4-bromophenyl)-4-[(4-chlorophenyl)-hydroxy-methylene]pyrrolidine-2,3-quinone] | > 40.3 µM
34 | COc1ccc(C2C(C(=O)c3cccs3)C(=O)C(=O)N2CCN2CCOCC2)c(OC)c1 (stereo unspecified) [2-(2,4-dimethoxyphenyl)-1-(2-morpholin-4-ylethyl)-4-oxidanyl-3-thiophen-2-ylcarbonyl-2H-pyrrol-5-one] | > 40.3 µM
35 | CC(=O)C1C(=O)C(=O)N(CCc2c(C)[nH]c3ccccc23)C1c1cccc(F)c1 (stereo unspecified) | > 40.3 µM
36 | CCCCCCOc1cccc(N2C(=O)C(=O)C(C(=O)c3ccccc3)C2c2cccc(F)c2)c1 (stereo unspecified) [(4Z)-5-(3-fluorophenyl)-1-(3-hexoxyphenyl)-4-[hydroxy(phenyl)methylene]pyrrolidine-2,3-quinone] | > 40.3 µM
